# Source: patent US8163269B2, “Bioactive stents for type II diabetics and methods for use thereof” (priority 2004, dated 2012)
# Tested on: progenitor endothelial cells (PECs)
# Experiment: trial PEC isolation, plating on coated plates
# Assay type: cell-based, human
# Conditions: fibronectin-coated versus gelatin-coated plates
# Source text: PEC Isolations To establish the protocol for isolating the progenitor endothelial cells (PECs) from peripheral blood, blood from healthy, normal donors was used. A literature review generated multiple PEC isolation protocols (J.C.I. (2000) 105:71-77; Circ. (2003) 107:143-149; Circ. (2003) 107:1164-1169; Plast. Reconstruc. Surgr. (2004) 113:284; and Am. J. Physiol. Heart Circ. Physiol. (2004) 286:H1985-H1993). […] The flow chart in FIG. 2 presents a modified protocol followed in isolation of PECs.
# Cells were isolated from ˜120 milliliters of peripheral blood and then single aliquots of cells were plated in Endothelial Basal Medium and 5% FBS (Cambrex). The media was changed every 4-5 days. The total cell number obtained from the isolations was donor-dependent and ranged from 40 million to 200 million cells.
substance,measurement,value
fibronectin,attachment and growth of isolated cells on coated plates,attach and grow better on fibronectin-coated plates than on gelatin-coated plates
